Measurements reported in the supplement of paper PMC11061612.

Columns and labels:
Experiment in all cases: Bliss excess, mean over the matrix (fraction); higher = more synergy
A204 (Rhabdomyosarcoma) = test system: A204 (Rhabdomyosarcoma)
Outline: (§1)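 Cell lines in DMEM/F12 or RPMI with 10% FBS were plated in 1536-well plates, held 24 hours at 37°C, 5% CO2, then given two-drug dose matrices for 72 hours (DMSO typically 0.2%). Viability was read by CellTiter-Glo 2.0 luminescence and scaled as inhibition from 0 (vehicle wells) to 1 (blank wells). Combination Emax is the second-highest inhibition in the matrix; Bliss excess is observed combination effect minus expected EA + EB − EA·EB, EA and EB being single-agent effects.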

[1] = test system: A2780 (Ovarian Carcinoma)
Outline: as §1

[2] = test system: CA46 (Burkitt's Lymphoma)
Outline: as §1

[3] = test system: ESO26 (Esophageal Adenocarcinoma)
Outline: as §1

[4] = test system: G-402 (Other Solid Carcinomas)
Outline: as §1

[5] = test system: Jurkat (T-Lymphoblastic Leukemia)
Outline: as §1

KP-N-YN (Neuroblastoma) = test system: KP-N-YN (Neuroblastoma)
Outline: as §1

[6] = test system: KYSE-140 (Esophageal Squamous Cell Carcinoma)
Outline: as §1

[7] = test system: LS-411N (Colorectal Carcinoma)
Outline: as §1

[8] = test system: LU-165 (Small Cell Lung Carcinoma)
Outline: as §1

[9] = test system: MDA-MB-436 (Breast Carcinoma)
Outline: as §1

[10] = test system: MHH-ES-1 (Ewing's Sarcoma)
Outline: as §1

[11] = test system: NCI-H1703 (Squamous Cell Lung Carcinoma)
Outline: as §1

[12] = test system: NCI-H2228 (Lung Adenocarcinoma)
Outline: as §1

[13] = test system: NCI-H441 (Lung Adenocarcinoma)
Outline: as §1

[14] = test system: OACp4C (Esophageal Adenocarcinoma)
Outline: as §1

RH-41 (Rhabdomyosarcoma) = test system: RH-41 (Rhabdomyosarcoma)
Outline: as §1

[15] = test system: UACC-812 (Breast Carcinoma)
Outline: as §1

WM1552C (Melanoma) = test system: WM1552C (Melanoma)
Outline: as §1

[16] = test system: huH-1 (Hepatocellular Carcinoma)
Outline: as §1

Row | SMILES | Bliss excess (A204 (Rhabdomyosarcoma)) | Bliss excess [1] | Bliss excess [2] | Bliss excess [3] | Bliss excess [4] | Bliss excess [5] | Bliss excess (KP-N-YN (Neuroblastoma)) | Bliss excess [6] | Bliss excess [7] | Bliss excess [8] | Bliss excess [9] | Bliss excess [10] | Bliss excess [11] | Bliss excess [12] | Bliss excess [13] | Bliss excess [14] | Bliss excess (RH-41 (Rhabdomyosarcoma)) | Bliss excess [15] | Bliss excess (WM1552C (Melanoma)) | Bliss excess [16]
1 | COc1nnc2ccc(N3CCC(c4ccc(OCCN5CCN(C)C(=O)[C@H]5C)cc4)CC3)nn12 [AZD5153] + C[C@@H]1COCCN1C2=NC(=NC(=C2)C3(CC3)[S@](=N)(=O)C)C4=C5C=CNC5=NC=C4 [AZD6738] (first compound max 1 µM, 7x7, partner max 10 µM) | 0.042 | -0.0058 | -0.0051 | 0.0343 | 0.0025 | 0.0601 | -0.0174 | -0.0968 | 0.0754 | -0.0048 | -0.0104 | 0.0074 | 0.02 | -0.0179 | 0.0192 | 0.0085 | 0.0514 | 0.0371 | -0.0783 | 0.031
2 | COc1nnc2ccc(N3CCC(c4ccc(OCCN5CCN(C)C(=O)[C@H]5C)cc4)CC3)nn12 [AZD5153] + Cc1c2c(nn1C)CSCc1cc(n(C)n1)CSc1cc(c3ccccc3c1)OCCCc1c(C(=O)O)n(C)c3c-2c(Cl)ccc13 [AZD5991] (first compound max 1 µM, 7x7, partner max 1 µM) | -0.0116 | -0.0324 | -0.0502 | -0.0071 | 0.044 | 0.0006 | -0.0362 | -0.124 | 0.0068 | -0.0173 | -0.0167 | -0.0049 | -0.0186 | -0.0261 | -0.0179 | 0.0438 | 0.012 | 0.0365 | -0.0694 | 0.0196
3 | COc1nnc2ccc(N3CCC(c4ccc(OCCN5CCN(C)C(=O)[C@H]5C)cc4)CC3)nn12 [AZD5153] + Cn1cnc2c(F)c(Nc3ccc(Br)cc3Cl)c(C(=O)NOCCO)cc21 [Selumetinib] (first compound max 1 µM, 7x7, partner max 10 µM) | -0.0838 | -0.0118 | -0.0282 | -0.0727 | -0.0421 | -0.0326 | -0.0967 | -0.028 | 0.0602 | -0.0494 | -0.0275 | -0.0114 | -0.0065 | -0.0535 | -0.0338 | 0.101 | -0.0176 | 0.0089 | -0.063 | -0.0102
4 | Cc1c2c(nn1C)CSCc1cc(n(C)n1)CSc1cc(c3ccccc3c1)OCCCc1c(C(=O)O)n(C)c3c-2c(Cl)ccc13 [AZD5991] + C1CN(CCC1(C(=O)N[C@@H](CCO)C2=CC=C(C=C2)Cl)N)C3=NC=NC4=C3C=CN4 [Capivasertib] (first compound max 1 µM, 7x7, partner max 3 µM) | -0.0305 | -0.0233 | 0.0205 | -0.0014 | 0.0445 | 0.0115 | -0.0382 | 0.0196 | -0.0038 | 0.0034 | -0.0204 | 0.0008 | 0.0157 | -0.0225 | -0.0023 | 0.019 | -0.0334 | 0.0196 | -0.004 | -0.0149
5 | Cc1c2c(nn1C)CSCc1cc(n(C)n1)CSc1cc(c3ccccc3c1)OCCCc1c(C(=O)O)n(C)c3c-2c(Cl)ccc13 [AZD5991] + C=CCn1c(=O)c2cnc(Nc3ccc(N4CCN(C)CC4)cc3)nc2n1-c1cccc(C(C)(C)O)n1 [AZD1775] (first compound max 1 µM, partner max 1 µM) | 0.0348 | -0.0313 | -0.0627 | 0.0072 | 0.051 | -0.0066 | -0.0247 | 0.0145 | 0.0376 | 0.0112 | 0.0087 | -0.0496 | -0.0214 | 0.0114 | 0.0171 | 0.0186 | 0.0029 | -0.0343 | -0.0651 | -0.0405
6 | Cc1c2c(nn1C)CSCc1cc(n(C)n1)CSc1cc(c3ccccc3c1)OCCCc1c(C(=O)O)n(C)c3c-2c(Cl)ccc13 [AZD5991] + CC1(C)CCC(CN2CCN(c3ccc(C(=O)NS(=O)(=O)c4ccc(NCC5CCOCC5)c([N+](=O)[O-])c4)c(Oc4cnc5[nH]ccc5c4)c3)CC2)=C(c2ccc(Cl)cc2)C1 [Venetoclax] (first compound max 1 µM, 7x7, partner max 1 µM) | -0.0226 | 0.0777 | -0.02 | -0.0209 | -0.0461 | 0.0116 | 0.0865 | 0.0154 | 0 | -0.014 | -0.0513 | 0.0733 | 0.0049 | -0.0122 | -0.0189 | 0.13 | 0.0582 | 0.0196 | -0.115 | -0.0534
7 | Cc1c2c(nn1C)CSCc1cc(n(C)n1)CSc1cc(c3ccccc3c1)OCCCc1c(C(=O)O)n(C)c3c-2c(Cl)ccc13 [AZD5991] + CN(C)CCCOc1ccc(-c2ccc3ncc4c(c3c2)n(C2CCOCC2)c(=O)n4C)cn1 [AZD0156] (first compound max 1 µM, 7x7, partner max 1 µM) | 0.0048 | -0.0094 | -0.0705 | 0.008 | 0.0162 | -0.0219 | -0.0752 | -0.0063 | -0.0058 | 0.0147 | -0.0369 | -0.0112 | -0.0272 | -0.0096 | 0.0031 | 0.0162 | 0.0044 | 0.0465 | -0.0444 | -0.0069
8 | Cc1c2c(nn1C)CSCc1cc(n(C)n1)CSc1cc(c3ccccc3c1)OCCCc1c(C(=O)O)n(C)c3c-2c(Cl)ccc13 [AZD5991] + C[C@@H]1COCCN1C2=NC(=NC(=C2)C3(CC3)[S@](=N)(=O)C)C4=C5C=CNC5=NC=C4 [AZD6738] (first compound max 1 µM, 7x7, partner max 10 µM) | 0.0507 | -0.0032 | -0.0252 | 0.0276 | 0.0386 | -0.0178 | -0.0067 | 0.0119 | 0.0069 | 0.0012 | -0.0031 | 0.0135 | -0.0108 | -0.0302 | 0.0073 | 0.0108 | 0.014 | 0.0094 | -0.0084 | -0.0302
9 | Cc1c2c(nn1C)CSCc1cc(n(C)n1)CSc1cc(c3ccccc3c1)OCCCc1c(C(=O)O)n(C)c3c-2c(Cl)ccc13 [AZD5991] + Cc1cc2ncnn2cc1Nc1ncc2c(n1)n(C1CCOCC1)c(=O)n2C [AZD7648] (first compound max 1 µM, 7x7, partner max 10 µM) | -0.0466 | -0.0224 | 0.0187 | -0.0372 | 0.0229 | -0.0234 | -0.0516 | -0.0345 | -0.0492 | 0.0045 | -0.042 | -0.0323 | 0.0168 | -0.0413 | -0.0529 | 0.008 | -0.0443 | -0.0259 | -0.0762 | -0.0224
10 | Cc1c2c(nn1C)CSCc1cc(n(C)n1)CSc1cc(c3ccccc3c1)OCCCc1c(C(=O)O)n(C)c3c-2c(Cl)ccc13 [AZD5991] + Cn1cnc2c(F)c(Nc3ccc(Br)cc3Cl)c(C(=O)NOCCO)cc21 [Selumetinib] (first compound max 1 µM, 7x7, partner max 3 µM) | -0.0355 | -0.0361 | -0.0195 | 0.0199 | -0.0416 | 0.0294 | -0.0059 | -0.015 | 0.0493 | -0.0335 | -0.0127 | -0.0127 | -0.0087 | 0.0038 | -0.0311 | 0.143 | -0.0293 | 0.0137 | -0.089 | -0.0382
11 | C[C@@H]1COCCN1c1cc(C2([S@](C)(=N)=O)CC2)nc(-c2ccnc3[nH]ccc23)n1 [AZD6738] + O=C(c1cc(Cc2n[nH]c(=O)c3ccccc23)ccc1F)N1CCN(C(=O)C2CC2)CC1 [Olaparib] (first compound max 10 µM, 7x7, partner max 10 µM) | -0.0075 | 0.006 | 0.0138 | -0.0081 | 0.0068 | 0.0592 | -0.203 | -0.0971 | -0.105 | -0.0714 | -0.0176 | 0.0366 | -0.041 | -0.0305 | 0.0124 | -0.0281 | -0.0201 | -0.0422 | 0.0105 | -0.0162
12 | COc1cccc2c1C(=O)c1c(O)c3c(c(O)c1C2=O)C[C@@](O)(C(=O)CO)C[C@@H]3O[C@H]1C[C@H](N)[C@H](O)[C@H](C)O1 [Doxorubicin] + Cc1cc2ncnn2cc1Nc1ncc2c(n1)n(C1CCOCC1)c(=O)n2C [AZD7648] (first compound max 1 µM, 7x7, partner max 10 µM) | 0.0782 | 0.0194 | 0.0813 | 0.032 | 0.0446 | 0.181 | 0.0805 | 0.05 | 0.0365 | -0.0534 | 0.0122 | 0.0697 | 0.0451 | 0.0042 | 0.0125 | 0.0636 | 0.116 | -0.023 | 0.0398 | 0.102
13 | COc1cccc(OCCCN)c1-c1cc(Nc2cnc(C#N)cn2)n[nH]1 [Prexasertib] + C=CCn1c(=O)c2cnc(Nc3ccc(N4CCN(C)CC4)cc3)nc2n1-c1cccc(C(C)(C)O)n1 [AZD1775] (first compound max 1 µM, partner max 1 µM) | 0.0437 | 0.155 | 0.0924 | 0.0278 | 0.0504 | 0.0561 | 0.0385 | 0.0329 | -0.0017 | -0.0566 | 0.165 | 0.0402 | 0.066 | 0.0199 | -0.0383 | -0.0189 | 0.0677 | 0.0705 | 0.0412 | 0.0613
14 | COc1cccc(OCCCN)c1-c1cc(Nc2cnc(C#N)cn2)n[nH]1 [Prexasertib] + CCc1c2c(nc3ccc(O)cc13)-c1cc3c(c(=O)n1C2)COC(=O)[C@]3(O)CC [SN-38] (first compound max 1 µM, 7x7, partner max 0.3 µM) | -0.0375 | -0.0528 | 0.0035 | 0.0483 | -0.0336 | -0.005 | -0.0158 | -0.0076 | 0.0331 | -0.0618 | -0.003 | 0.0134 | -0.0374 | -0.0569 | -0.0772 | 0.0186 | 0.0029 | -0.0633 | -0.0306 | 0.022
